Here are results for 1 molecule from paper PMC11678869, “Functional Role of Odorant-Binding Proteins in Response to Sex Pheromone Component Z8-14:Ac in Grapholita molesta (Busck)” (Insects, 2024).

In assay [1] the test system is PFM males. Briefly: Field trapping with delta traps, pear orchard. It is filed as in vivo, Grapholita funebrana. As for the experimental part: (§1) To determine the inhibitory effects on OFM male adults and the impact on the trapping effects of PFM male adults, varying amounts of Z8-14:Ac (0, 5, 10, 25, 50, 75, 100, 125, 150 μg) or Z10-14:Ac (0, 25, 50, 100, 150, 250, 350, 450, and 550 μg) were added to rubber septa loaded with a constant dosage of the main pheromone (500 μg of Z8-12:Ac and 20 μg of E8-12:Ac) of the PFM. Trapping experiments of Z8-14:Ac were carried out in peach and pear orchards in Yan’an and Xinjiang (China), respectively. Trapping tests of Z10-14:Ac were performed in pear orchards in Xinjiang (China). Each orchard had nine plots, with three plots in one field. Each plot consisted of a linear arrangement of traps loaded with a constant dosage of the main pheromones and different percentages of the secondary pheromone Z8-14:Ac or Z10-14:Ac of the PFM. Plots in the same field were placed 30 m apart, and fields were ≥1 km apart. The traps were hung 1.4 m from the ground on a suspension bracket between two rows of peach or pear trees from 10 June to 25 July 2021 in Xinjiang and from 15 June to 30 July 2021 in Yan’an. The positions of the traps within the plot were randomly arranged. Every 5 days, counts were taken, and the traps were rotated to the adjacent position to avoid any potential position effects. The septa loaded with sex pheromone components were replaced with new ones after every 15 days of suspension. The data were analyzed using a one-way ANOVA, and the differences in the average trapping of OFM and PFM males using sex attractants containing different amounts of Z8-14:Ac or Z10-14:Ac were further analyzed using Tukey’s HSD test, both of which were performed using SPSS 23.0.

In another assay the target is rGmolGOBP2 (Grapholita molesta, UniProt H9XTU6). In words: Fluorescence competitive binding assay with 1-NPN probe. From the text: (§2) Previous researchers have successfully expressed rGmolPBP1, rGmolPBP2, rGmolPBP3, rGmolGOBP1, and rGmolGOBP2 proteins using prokaryotic expression systems. In this article, the DNA sequences of these five GmolPBPs and GmolGOBPs, with the signal peptides removed and restriction sites on both ends, were inserted into the expression vector pET28a(+) linearized with the same restriction enzyme. These vectors were then transformed into Escherichia coli BL21(DE3) and induced by isopropyl-β-d-thiogalactoside (IPTG). Since all five recombinant proteins were expressed in inclusion bodies, they were denatured using 8 M urea and then renatured using a cysteine/cystine REDOX system. The reduced recombinant proteins were purified using an Ni-NTA His Bind Resin column (7Sea Pharmatech Co., Ltd., Shanghai, China). Non-target proteins were washed off with washing buffer (20 mM Tris-HCl (pH 7.4), 20 mM imidazole, 1 mM PMSF, and 250 mM NaCl), and then the target proteins were eluted with elution buffer (20 mM Tris-HCl (pH 7.4), 1 mM PMSF, and 250 mM NaCl) with an increasing concentration of imidazole (50, 100, and 200 mM). Five milliliters of eluents with high target protein content and low levels of contaminants were collected and placed in dialysis tubing (Coolaber, Beijing, China) with a molecular weight cut-off of 3.5 kDa to remove NaCl and imidazole. The purified soluble proteins were stored at −80 °C before use.
Sequence of rGmolGOBP2 (H9XTU6 entry or part of it): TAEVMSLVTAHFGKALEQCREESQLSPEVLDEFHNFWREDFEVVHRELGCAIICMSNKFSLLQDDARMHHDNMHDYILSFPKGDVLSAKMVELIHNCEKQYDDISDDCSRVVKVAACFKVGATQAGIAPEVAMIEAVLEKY
(§3) The binding affinities of three rGmolPBPs and two rGmolGOBPs for Z8-14:Ac were determined using an F-2700 fluorescence spectrophotometer (Hitachi, Tokyo, Japan). First, we measured the dissociation constants (Kd) of the rGmolPBPs (or rGmolGOBPs) binding to 1−NPN. Each protein was diluted to 2 μM with 20 mM Tris-HCl buffer (pH 7.4); then, 2 mL of the protein solution was transferred to a quartz cuvette and titrated with 1 mM 1−NPN to a final concentration of 1–18 μM. As the doses of 1−NPN were increased, the increasing amplitude of the fluorescence intensity decreased, and finally, the binding of the protein to 1−NPN reached saturation. The Kd values were calculated using the nonlinear regression method and the Scatchard equation. Second, we measured the inhibitory constant (Ki) of Z8-14:Ac’s competitive binding with each rGmolPBP (or rGmolGOBP) from the protein/1−NPN complex. The initial fluorescence intensity values were measured after a 2 min reaction in 2 mL solution of 20 mM Tris-HCl (pH 7.4) containing 2 µM rGmolPBP (or rGmolGOBP) protein and 2 µM 1−NPN. Then, the solution was titrated with aliquots of 1 mM Z8-14:Ac to obtain final concentrations in the range of 1–14 µM, and the fluorescence intensity value of each reaction was recorded. The Ki values were calculated using the following equation: Ki = [IC50]/(1 + [1 − NPN]/Kd) where IC50 is the concentration of Z8-14:Ac when half of the initial fluorescence intensity value of the rGmolPBP (or GmolGOBP)/1−NPN complex is replaced, [1 − NPN] represents the concentration of free 1−NPN, and Kd is the dissociation constant of the rGmolPBP (or GmolGOBP)/1−NPN complex.

The next assay concerns the target rGmolPBP3 (Grapholita molesta, UniProt A0A059VBP3). The description is as above.
Description: as §2, §3

In the next assay the target is rGmolPBP1 (Grapholita molesta, UniProt A0A2R4SBD6). Described as above.
Sequence of rGmolPBP1 (A0A2R4SBD6 entry or part of it): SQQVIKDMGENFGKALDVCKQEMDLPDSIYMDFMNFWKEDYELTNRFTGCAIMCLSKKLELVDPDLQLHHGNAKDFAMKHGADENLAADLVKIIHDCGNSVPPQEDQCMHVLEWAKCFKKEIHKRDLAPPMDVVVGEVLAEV
Description: as §2, §3

The test system of assay [2] is PFM males. In words: Field trapping with delta traps, peach orchard. It is filed as in vivo, Grapholita funebrana. As for the experimental part: as §1
[3] abbreviates: Z8-12:Ac/E8-12:Ac/Z8-14:Ac 500/20/5 μg (100:4:1).
The mark [4] stands for this setting: Z8-12:Ac/E8-12:Ac/Z8-14:Ac 500/20/10 μg (100:4:2).
The mark [5] stands for this setting: Z8-12:Ac/E8-12:Ac/Z8-14:Ac 500/20/25 μg (100:4:5).
[6] abbreviates: Z8-12:Ac/E8-12:Ac/Z8-14:Ac 500/20/50 μg (100:4:10).
Where [7] appears, read: Z8-12:Ac/E8-12:Ac/Z8-14:Ac 500/20/75 μg (100:4:15).
Setting [8] is: Z8-12:Ac/E8-12:Ac/Z8-14:Ac 500/20/100 μg (100:4:20).
[9] abbreviates: Z8-12:Ac/E8-12:Ac/Z8-14:Ac 500/20/125 μg (100:4:25).
The mark [10] stands for this setting: Z8-12:Ac/E8-12:Ac/Z8-14:Ac 500/20/150 μg (100:4:30).
Setting [11] is: adding 1–30% of Z8-14:Ac to the PFM sex attractants.
The mark [12] stands for this setting: 2 μM protein, 2 μM 1-NPN, pH 7.4, read-out: IC50 (displacement of 1-NPN).
[13] abbreviates: calculated from IC50 and Kd of 1-NPN.

Sequence of rGmolPBP3 (A0A059VBP3 entry or part of it): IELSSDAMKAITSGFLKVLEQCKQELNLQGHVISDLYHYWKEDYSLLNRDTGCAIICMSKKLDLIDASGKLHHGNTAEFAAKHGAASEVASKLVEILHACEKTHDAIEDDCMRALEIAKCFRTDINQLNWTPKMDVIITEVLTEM

One may read the IC50 as the concentration that inhibits the measured activity by half. As a reminder, the Ki is the dissociation constant of the complex between target and ligand, obtained from inhibition or displacement. Turning to `CCCCC/C=C\CCCCCCCOC(C)=O` [Z8-14:Ac, (Z)-8-tetradecenyl acetate], the “Total PFM Males/Trap” value with PFM males [1] (setting [3]) amounted to 64.07 ± 6.89 a Males/Trap; in the assay on PFM males [1] (setting [4]), 45.47 ± 6.64 a Males/Trap; in the assay on PFM males [1] (setting [5]), 43.06 ± 0.34 a Males/Trap; in the assay on PFM males [1] (setting [6]), 53.73 ± 7.04 a Males/Trap; in the assay on PFM males [1] (setting [7]) it was 48.57 ± 6.31 a Males/Trap; with PFM males [1] (setting [8]), 42.36 ± 8.46 a Males/Trap. The “Total PFM Males/Trap” value in the assay on PFM males [1] (setting [9]) is reported as 57.52 ± 21.06 a Males/Trap; in the assay with PFM males [1] (setting [10]), 72.67 ± 12.44 a Males/Trap; in the assay with PFM males [2] (setting [3]), 387.73 ± 18.31 a Males/Trap; in the assay on PFM males [2] (setting [4]), 287.22 ± 7.96 a Males/Trap; in the assay on PFM males [2] (setting [5]), 314.53 ± 26.14 a Males/Trap; in the assay on PFM males [2] (setting [6]), 331.58 ± 17.46 a Males/Trap. Moreover, the “Total PFM Males/Trap” value amounted to 297.81 ± 4.75 a Males/Trap in the assay with PFM males [2] (setting [7]), 285.62 ± 6.55 a Males/Trap with PFM males [2] (setting [8]), 352.89 ± 32.42 a Males/Trap in the assay with PFM males [2] (setting [9]) and 348.30 ± 22.77 a Males/Trap in the assay on PFM males [2] (setting [10]). Moreover, the “effect on the number of PFM males” value in the assay with PFM males [1] (setting [11]) and in the assay on PFM males [2] (setting [11]) was “neither significantly increased nor inhibited” each time. Moreover, the half-inhibitory concentration (IC50) at rGmolGOBP2 (setting [12]) worked out at 3.53 ± 0.22 µM; on rGmolPBP3 (setting [12]), 2780 ± 320 nM; at rGmolPBP1 (setting [12]), 2930 ± 70 nM. Besides, the Ki at rGmolGOBP2 (setting [13]) was 2860 ± 180 nM; at rGmolPBP3 (setting [13]) it was 2560 ± 270 nM; on rGmolPBP1 (setting [13]), 1660 ± 40 nM.
